In patent US9181234B2, “Antibacterial compounds” (priority 2010, dated 2015):
Values after ≈ are worked out from the molar mass of the structure shown.

Experiments:
[1] = tested on: Streptococcus pyogenes (Isolate ID ATCC 51339); assay: Antibacterial activity, MIC, S. pyogenes; assay type: cell-based; conditions: Streptococcus pyogenes, ATCC51339, Gram positive strain; broth microdilution or agar dilution
How it was run: (§1)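 Readout is the MIC, established according to CLSI standard M7-A7 using either agar dilution or broth microdilution.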

physchem = conditions: kinetic from dmso stock
How it was run: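 DMSO doubling dilutions were diluted twenty-fold into 100 mM citrate (pH 4), PBS (pH 7.4) or carbonate-bicarbonate (pH 9). After 24 h equilibration at room temperature, absorbance was read at 620 nm. The reported value is the highest concentration without measurable precipitate.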

[2] = tested on: Staphylococcus aureus (Isolate ID ATCC 29213); assay: Antibacterial activity, MIC, S. aureus; assay type: cell-based; conditions: Staphylococcus aureus, ATCC29213, Gram positive strain; broth microdilution or agar dilution
How it was run: as §1

[3] = tested on: Enterococcus faecalis (Isolate ID ATCC 29212); assay: Antibacterial activity, MIC, E. faecalis; assay type: cell-based; conditions: Enterococcus faecalis, ATCC29212; Gram positive strain; broth microdilution or agar dilution
Experimental: Bacterial Assay: Determination of Antibacterial Activity
Compounds of the invention were tested for antimicrobial activity by susceptibility testing in liquid or on solid media. MICs for compounds against each strain were determined by the broth microdilution or agar dilution method according to the guidelines of the Clinical Laboratories and Standards Institute, formerly the National Committee for Clinical Laboratory Standards (Clinical Laboratories and Standards Institute. Methods for Dilution Antimicrobial Susceptibility Tests for Bacteria That Grow Aerobically; Approved Standard—Seventh Edition. Document M7-A7. CLSI, Wayne, Pa., 2006; Clinical Laboratories and Standards Institute. The gram positive bacterial strains tested include S. aureus (Staphylococcus aureus (Isolate ID ATCC 29213)), E. faecalis (Enterococcus faecalis (Isolate ID ATCC 29212)) and S. pyogenes (Streptococcus pyogenes (Isolate ID ATCC 51339)). The gram negative bacterial strains tested include H. influenzae (Haemophilus influenzae (Isolate ID ATCC 49247))

[4] = tested on: Haemophilus influenzae (Isolate ID ATCC 49247); assay: Antibacterial activity, MIC, H. influenzae; assay type: cell-based; conditions: Haemophilus influenzae, ATCC49247; Gram negative strain; broth microdilution or agar dilution
How it was run: as §1

[5] = pH 7.4, aqueous buffer, Solubility (pH 7.4)
[6] = pH 7.4, aqueous buffer, Solubility Range
[7] = pH 9, aqueous buffer, Max Solubility
[8] = pH 9, aqueous buffer, Solubility Range (maximum solubility)
[9] = pH 7.4, aqueous buffer, Max Solubility
[10] = pH 7.4, aqueous buffer, Solubility Range (maximum solubility)

SMILES	MIC [1] [µg/mL]	solubility at 24 h (physchem; [5]) [µg/mL]	solubility at 24 h (physchem; [6]) [µg/mL]	solubility at 24 h (physchem; [7]) [µg/mL]	solubility at 24 h (physchem; [8]) [µg/mL]	MIC [2] [µg/mL]	MIC [3] [µg/mL]	MIC [4] [µg/mL]	solubility at 24 h (physchem; [9]) [µg/mL]	solubility at 24 h (physchem; [10]) [µg/mL]
CCNC(=O)Nc1nc2cc(-c3cnc(N4CCC(C)(C(=O)O)CC4)nc3)cc(-c3ncc(F)cn3)c2s1 [Compound 34]	≤ 0.25	50 (≈ 93.2 µM)	12.5 to 400 (≈ 23.3 to 745 µM)	100 (≈ 186 µM)	12.5 to 400 (≈ 23.3 to 745 µM)	≤ 0.25	≤ 0.25	1 to 16 (≈ 1.86 to 29.8 µM)	–	–
CCNC(=O)Nc1nc2cc(-c3cnc(N4CCC(C)(C(=O)O)CC4)cn3)cc(-c3ccccn3)c2s1 [Compound 40]	≤ 0.25	≥ 800	> 800	–	–	0.25 to 1 (≈ 0.483 to 1.93 µM)	≤ 0.25	1 to 16 (≈ 1.93 to 30.9 µM)	≥ 800	> 800
CCNC(=O)Nc1nc2cc(-c3cnc(N4CCC(C)(C(=O)O)CC4)nc3)cc(-c3cn(-c4ccccc4)nn3)c2s1 [Compound 41, 1-[5-[2-(ethylcarbamoylamino)-7-(1-phenyltriazol-4-yl)-1,3-benzothiazol-5-yl]pyrimidin-2-yl]-4-methyl-piperidine-4-carboxylic acid]	≤ 0.25	≥ 800	> 800	–	–	≤ 0.25	≤ 0.25	1 to 16 (≈ 1.71 to 27.4 µM)	≥ 800	> 800
CCNC(=O)Nc1nc2cc(-c3cnc(N4CCC(C)(C(=O)O)CC4)nc3)cc(-c3ccnc(C)n3)c2s1 [Compound 43]	≤ 0.25	400 (≈ 751 µM)	400 to 800 (≈ 751 to 1500 µM)	≥ 800	> 800	≤ 0.25	≤ 0.25	0.25 to 1 (≈ 0.469 to 1.88 µM)	–	–
CCNC(=O)Nc1nc2cc(-c3cnc(N4CCC(C)(C(=O)O)CC4)nc3)cc(-c3cc(C)ncn3)c2s1 [Compound 45]	≤ 0.25	≥ 800	> 800	–	–	≤ 0.25	≤ 0.25	0.25 to 1 (≈ 0.469 to 1.88 µM)	≥ 800	> 800
CCNC(=O)Nc1nc2cc(-c3cnc(N4CCC(C)(C(=O)O)CC4)nc3)ccc2s1 [Compound 46, 1-{5-[2-(3-Ethyl-ureido)-benzothiazol-5-yl]-pyrimidin-2-yl}-4-methyl-piperidine-4-carboxylic acid]	1 to 16 (≈ 2.27 to 36.3 µM)	100 (≈ 227 µM)	12.5 to 400 (≈ 28.4 to 908 µM)	400 (≈ 908 µM)	400 to 800 (≈ 908 to 1820 µM)	1 to 16 (≈ 2.27 to 36.3 µM)	0.25 to 1 (≈ 0.567 to 2.27 µM)	> 16	–	–

More lines, now with the values ahead:

MIC [1] [µg/mL]	solubility at 24 h (physchem; [5]) [µg/mL]	solubility at 24 h (physchem; [6]) [µg/mL]	solubility at 24 h (physchem; [7]) [µg/mL]	solubility at 24 h (physchem; [8]) [µg/mL]	MIC [2] [µg/mL]	MIC [3] [µg/mL]	MIC [4] [µg/mL]	solubility at 24 h (physchem; [9]) [µg/mL]	solubility at 24 h (physchem; [10]) [µg/mL]	SMILES
≤ 0.25	50 (≈ 93.5 µM)	12.5 to 400 (≈ 23.4 to 748 µM)	400 (≈ 748 µM)	400 to 800 (≈ 748 to 1500 µM)	≤ 0.25	≤ 0.25	1 to 16 (≈ 1.87 to 29.9 µM)	–	–	CCNC(=O)Nc1nc2cc(-c3cnc(N4CCC(C)(C(=O)O)CC4)c(F)c3)cc(-c3ccccn3)c2s1 [Compound 36]
0.25 to 1 (≈ 0.55 to 2.2 µM)	≥ 800	> 800	–	–	0.25 to 1 (≈ 0.55 to 2.2 µM)	≤ 0.25	> 16	≥ 800	> 800	CCNC(=O)Nc1nc2cc(-c3cnc(N4CCC(C)(C(=O)O)CC4)nc3)cc(C)c2s1 [Compound 38, 1-{5-[2-(3-Ethyl-ureido)-7-methyl-benzothiazol-5-yl]-pyrimidin-2-yl}-4-methyl-piperidine-4-carboxylic acid]
≤ 0.25	25 (≈ 45.6 µM)	12.5 to 400 (≈ 22.8 to 729 µM)	100 (≈ 182 µM)	12.5 to 400 (≈ 22.8 to 729 µM)	0.25 to 1 (≈ 0.456 to 1.82 µM)	≤ 0.25	1 to 16 (≈ 1.82 to 29.2 µM)	–	–	CCNC(=O)Nc1nc2cc(-c3cnc(N4CCC(C)(C(=O)O)CC4)nc3)cc(-c3ccnc(OC)n3)c2s1 [Compound 42]
≤ 0.25	≥ 800	> 800	–	–	1 to 16 (≈ 1.84 to 29.4 µM)	≤ 0.25	> 16	≥ 800	> 800	CCNC(=O)Nc1nc2cc(-c3cnc(N4CCC(C)(C(=O)O)CC4)nc3)cc(-c3ccnc(C#N)n3)c2s1 [Compound 44]
